Data taken from patent publication US20240409886A1, “CULTURE MEDIUM COMPRISING DIPEPTIDES” (Evonik Operations GmbH, priority 2017, published 2024).
Residues, ends and D or L forms follow the SMILES beside them.

Columns and labels:
[1] = test system: antibody-producing Chinese Hamster Ovary (CHO) cell (subclone DG44)
Description: The analysis was based on a comparison of the viable cell density and cell viability in a series of cell cultures, which were conducted at substantially identical culturing conditions, however, with increasing amounts of the Gln-Asn dipeptide in the medium. In order to keep the total amounts of Asn and Gln units (molar basis) in the various culture media constant, the molar concentration of free glutamine and free asparagine was reduced in accordance with the molar amount of the dipeptide added. A series of culture media having increasing amounts of the Gln-Asn dipeptide was prepared by mixing varying amounts of a Base Medium (comprising free Asn and Gln) and a Test Medium (comprising Asn-Gln dipeptide). A commercially available defined cell culture medium (TC-42, TeutoCell AG, Bielefeld, Germany) served as the Base Medium. […] Furthermore, the free Gln concentration in the Test Medium was set to a value such that the total concentration of Gln units in the Test Medium (i.e., free Gln and dipeptide-Gln) matched the concentration of free Gln in the Base Medium. All other nutrient concentrations in the Test Medium were the same as in the Base Medium. […]

[2] = test system: antibody-producing Chinese Hamster Ovary (CHO) cell (subclone DG44); assay: viable cell density in CHO cell culture with increasing Gln-Asn dipeptide (OFAT); assay type: cell-based
Description: The effect of the Gln-Asn dipeptide on an antibody-producing Chinese Hamster Ovary (CHO) cell (subclone DG44; Life Technologies Corporation, Carlsbad, USA) was investigated using one-factor-at-a-time (OFAT) analysis.
The analysis was based on a comparison of the viable cell density and cell viability in a series of cell cultures, which were conducted at substantially identical culturing conditions, however, with increasing amounts of the Gln-Asn dipeptide in the medium. In order to keep the total amounts of Asn and Gln units (molar basis) in the various culture media constant, the molar concentration of free glutamine and free asparagine was reduced in accordance with the molar amount of the dipeptide added. A series of culture media having increasing amounts of the Gln-Asn dipeptide was prepared by mixing varying amounts of a Base Medium (comprising free Asn and Gln) and a Test Medium (comprising Asn-Gln dipeptide). A commercially available defined cell culture medium (TC-42, TeutoCell AG, Bielefeld, Germany) served as the Base Medium. (Any other suitable cell culture medium could be used.) A Test Medium (TC-42-EVO) was prepared so as to have identical nutrient concentrations compared to the Base Medium, however, instead of free Asn the Test Medium contained an equimolar amount (5.4 mM) of Gin-Asn dipeptide. Furthermore, the free Gln concentration in the Test Medium was set to a value such that the total concentration of Gln units in the Test Medium (i.e., free Gln and dipeptide-Gln) matched the concentration of free Gln in the Base Medium. All other nutrient concentrations in the Test Medium were the same as in the Base Medium. The Base Medium contained 1461.5 mg/l free Gln and 612 mg/l free Asn.
Six cell cultivations were then conducted with media containing varying amounts of the Test Medium and the Base Medium in the following proportions:
All media were set to pH 8.3. Salinity of the culture media was set to 285 mOsmol/kg with NaCl. All cultivations were conducted in on a rotary shaker under identical culture conditions (temperature, humidity, rpm, CO2, etc.), using standard cell culture methods. Three passages of a cell culture are conducted and viable cell density (VCD; 10^6 viable cells/ml) and cell viability (%) was followed in duplicate determinations, using […] determination.
A correlation of the maximum viable cell density (third passage) with the concentration of the dipeptide is observed. The greatest maximum viable cell density is obtained in cultivation #1, i.e., in the cultivation in which all Asn is provided in the form of the Asn-containing dipeptide. The lowest maximum viable cell density is obtained in cultivation #6, i.e., in the cultivation in which all of the Asn in provided as free amino acid. Furthermore, it can be seen that the increased viable cell density is maintained over an extended period of time (day 13 through day 18).

Structure (SMILES): NC(=O)CC[C@H](N)C(=O)N[C@@H](CC(N)=O)C(=O)O [Gln-Asn, L-glutaminyl-L-asparagine] (H-Gln-Asn-OH)
- cell viability at day 18 ([1]; high concentrations of the dipeptide (cultivations #1, #2, #3)): relatively high viability
- cell viability at the end of experiment ([1]; lower concentration of the dipeptide (cultivations #4, #5)): significantly reduced cell viability
- viable cell density ([2]; 0.3 mM dipeptide (#5), time 0): 0.285 10^6 cells/ml
- viable cell density ([2]; 0.3 mM dipeptide (#5), time 0.89): 0.485 10^6 cells/ml
- viable cell density ([2]; 0.3 mM dipeptide (#5), time 3.08): 1.985 10^6 cells/ml
- viable cell density ([2]; 0.3 mM dipeptide (#5), time 3.71): 3.325 10^6 cells/ml
- viable cell density ([2]; 0.3 mM dipeptide (#5), time 4.08): 0.265 10^6 cells/ml
- viable cell density ([2]; 0.3 mM dipeptide (#5), time 4.70): 1.12 10^6 cells/ml
- viable cell density ([2]; 0.3 mM dipeptide (#5), time 5.69): 1.555 10^6 cells/ml
- viable cell density ([2]; 0.3 mM dipeptide (#5), time 6.88): 3.8 10^6 cells/ml
- viable cell density ([2]; 0.3 mM dipeptide (#5), time 7.04): 0.31 10^6 cells/ml
- viable cell density ([2]; 0.3 mM dipeptide (#5), time 7.80): 1.17 10^6 cells/ml
- viable cell density ([2]; 0.3 mM dipeptide (#5), time 8.78): 2.01 10^6 cells/ml
- viable cell density ([2]; 0.3 mM dipeptide (#5), time 9.82): 3.9 10^6 cells/ml
- viable cell density ([2]; 0.3 mM dipeptide (#5), time 10.99): 6.065 10^6 cells/ml
- viable cell density ([2]; 0.3 mM dipeptide (#5), time 12.02): 8.21 10^6 cells/ml
- viable cell density ([2]; 0.3 mM dipeptide (#5), time 12.75): 7.135 10^6 cells/ml
- viable cell density ([2]; 0.3 mM dipeptide (#5), time 13.89): 5.13 10^6 cells/ml
- viable cell density ([2]; 0.3 mM dipeptide (#5), time 14.74): 5.54 10^6 cells/ml
- viable cell density ([2]; 0.3 mM dipeptide (#5), time 15.79): 4.075 10^6 cells/ml
- viable cell density ([2]; 0.3 mM dipeptide (#5), time 16.89): 2.775 10^6 cells/ml
- viable cell density ([2]; 0.3 mM dipeptide (#5), time 18.06): 1.825 10^6 cells/ml
- viable cell density ([2]; 0.8 mM dipeptide (#4), time 0): 0.27 10^6 cells/ml
- viable cell density ([2]; 0.8 mM dipeptide (#4), time 0.89): 0.565 10^6 cells/ml
- viable cell density ([2]; 0.8 mM dipeptide (#4), time 3.08): 2.285 10^6 cells/ml
- viable cell density ([2]; 0.8 mM dipeptide (#4), time 3.71): 3.4 10^6 cells/ml
- viable cell density ([2]; 0.8 mM dipeptide (#4), time 4.08): 0.365 10^6 cells/ml
- viable cell density ([2]; 0.8 mM dipeptide (#4), time 4.70): 0.665 10^6 cells/ml
- viable cell density ([2]; 0.8 mM dipeptide (#4), time 5.69): 1.545 10^6 cells/ml
- viable cell density ([2]; 0.8 mM dipeptide (#4), time 6.88): 3.36 10^6 cells/ml
- viable cell density ([2]; 0.8 mM dipeptide (#4), time 7.04): 0.32 10^6 cells/ml
- viable cell density ([2]; 0.8 mM dipeptide (#4), time 7.80): 1.12 10^6 cells/ml
- viable cell density ([2]; 0.8 mM dipeptide (#4), time 8.78): 1.86 10^6 cells/ml
- viable cell density ([2]; 0.8 mM dipeptide (#4), time 9.82): 3.6 10^6 cells/ml
- viable cell density ([2]; 0.8 mM dipeptide (#4), time 10.99): 6.31 10^6 cells/ml
- viable cell density ([2]; 0.8 mM dipeptide (#4), time 12.02): 7.805 10^6 cells/ml
- viable cell density ([2]; 0.8 mM dipeptide (#4), time 12.75): 7.545 10^6 cells/ml
- viable cell density ([2]; 0.8 mM dipeptide (#4), time 13.89): 5.86 10^6 cells/ml
- viable cell density ([2]; 0.8 mM dipeptide (#4), time 14.74): 5.26 10^6 cells/ml
- viable cell density ([2]; 0.8 mM dipeptide (#4), time 15.79): 4.065 10^6 cells/ml
- viable cell density ([2]; 0.8 mM dipeptide (#4), time 16.89): 3.175 10^6 cells/ml
- viable cell density ([2]; 0.8 mM dipeptide (#4), time 18.06): 2.3 10^6 cells/ml
- viable cell density ([2]; 1.4 mM dipeptide (#3), time 0): 0.265 10^6 cells/ml
- viable cell density ([2]; 1.4 mM dipeptide (#3), time 0.89): 0.495 10^6 cells/ml
- viable cell density ([2]; 1.4 mM dipeptide (#3), time 3.08): 1.8 10^6 cells/ml
- viable cell density ([2]; 1.4 mM dipeptide (#3), time 3.71): 2.415 10^6 cells/ml
- viable cell density ([2]; 1.4 mM dipeptide (#3), time 4.08): 0.315 10^6 cells/ml
- viable cell density ([2]; 1.4 mM dipeptide (#3), time 4.70): 0.65 10^6 cells/ml
- viable cell density ([2]; 1.4 mM dipeptide (#3), time 5.69): 1.47 10^6 cells/ml
- viable cell density ([2]; 1.4 mM dipeptide (#3), time 6.88): 3.365 10^6 cells/ml
- viable cell density ([2]; 1.4 mM dipeptide (#3), time 7.04): 0.33 10^6 cells/ml
- viable cell density ([2]; 1.4 mM dipeptide (#3), time 7.80): 0.77 10^6 cells/ml
- viable cell density ([2]; 1.4 mM dipeptide (#3), time 8.78): 1.615 10^6 cells/ml
- viable cell density ([2]; 1.4 mM dipeptide (#3), time 9.82): 2.97 10^6 cells/ml
- viable cell density ([2]; 1.4 mM dipeptide (#3), time 10.99): 5.25 10^6 cells/ml
- viable cell density ([2]; 1.4 mM dipeptide (#3), time 12.02): 8.29 10^6 cells/ml
- viable cell density ([2]; 1.4 mM dipeptide (#3), time 12.75): 9.23 10^6 cells/ml
- viable cell density ([2]; 1.4 mM dipeptide (#3), time 13.89): 8.975 10^6 cells/ml
- viable cell density ([2]; 1.4 mM dipeptide (#3), time 14.74): 9.58 10^6 cells/ml
- viable cell density ([2]; 1.4 mM dipeptide (#3), time 15.79): 9.535 10^6 cells/ml
- viable cell density ([2]; 1.4 mM dipeptide (#3), time 16.89): 7.395 10^6 cells/ml
- viable cell density ([2]; 1.4 mM dipeptide (#3), time 18.06): 5.985 10^6 cells/ml
- viable cell density ([2]; 4.3 mM dipeptide (#2), time 0): 0.27 10^6 cells/ml
- viable cell density ([2]; 4.3 mM dipeptide (#2), time 0.89): 0.51 10^6 cells/ml
- viable cell density ([2]; 4.3 mM dipeptide (#2), time 3.08): 1.615 10^6 cells/ml
- viable cell density ([2]; 4.3 mM dipeptide (#2), time 3.71): 2.13 10^6 cells/ml
- viable cell density ([2]; 4.3 mM dipeptide (#2), time 4.08): 0.3 10^6 cells/ml
- viable cell density ([2]; 4.3 mM dipeptide (#2), time 4.70): 0.54 10^6 cells/ml
- viable cell density ([2]; 4.3 mM dipeptide (#2), time 5.69): 1.545 10^6 cells/ml
- viable cell density ([2]; 4.3 mM dipeptide (#2), time 6.88): 3.555 10^6 cells/ml
- viable cell density ([2]; 4.3 mM dipeptide (#2), time 7.04): 0.305 10^6 cells/ml
- viable cell density ([2]; 4.3 mM dipeptide (#2), time 7.80): 1.045 10^6 cells/ml
- viable cell density ([2]; 4.3 mM dipeptide (#2), time 8.78): 1.545 10^6 cells/ml
- viable cell density ([2]; 4.3 mM dipeptide (#2), time 9.82): 2.8 10^6 cells/ml
- viable cell density ([2]; 4.3 mM dipeptide (#2), time 10.99): 5.115 10^6 cells/ml
- viable cell density ([2]; 4.3 mM dipeptide (#2), time 12.02): 7.215 10^6 cells/ml
- viable cell density ([2]; 4.3 mM dipeptide (#2), time 12.75): 9.42 10^6 cells/ml
- viable cell density ([2]; 4.3 mM dipeptide (#2), time 13.89): 9.645 10^6 cells/ml
- viable cell density ([2]; 4.3 mM dipeptide (#2), time 14.74): 9.985 10^6 cells/ml
- viable cell density ([2]; 4.3 mM dipeptide (#2), time 15.79): 11.08 10^6 cells/ml
- viable cell density ([2]; 4.3 mM dipeptide (#2), time 16.89): 9.195 10^6 cells/ml
- viable cell density ([2]; 4.3 mM dipeptide (#2), time 18.06): 8.905 10^6 cells/ml
- viable cell density ([2]; 5.4 mM dipeptide (#1), time 0): 0.28 10^6 cells/ml
- viable cell density ([2]; 5.4 mM dipeptide (#1), time 0.89): 0.59 10^6 cells/ml
- viable cell density ([2]; 5.4 mM dipeptide (#1), time 3.08): 1.38 10^6 cells/ml
- viable cell density ([2]; 5.4 mM dipeptide (#1), time 3.71): 1.64 10^6 cells/ml
- viable cell density ([2]; 5.4 mM dipeptide (#1), time 4.08): 0.365 10^6 cells/ml
- viable cell density ([2]; 5.4 mM dipeptide (#1), time 4.70): 0.56 10^6 cells/ml
- viable cell density ([2]; 5.4 mM dipeptide (#1), time 5.69): 1.33 10^6 cells/ml
- viable cell density ([2]; 5.4 mM dipeptide (#1), time 6.88): 3.16 10^6 cells/ml
- viable cell density ([2]; 5.4 mM dipeptide (#1), time 7.04): 0.335 10^6 cells/ml
- viable cell density ([2]; 5.4 mM dipeptide (#1), time 7.80): 0.665 10^6 cells/ml
- viable cell density ([2]; 5.4 mM dipeptide (#1), time 8.78): 1.26 10^6 cells/ml
- viable cell density ([2]; 5.4 mM dipeptide (#1), time 9.82): 2.67 10^6 cells/ml
- viable cell density ([2]; 5.4 mM dipeptide (#1), time 10.99): 3.57 10^6 cells/ml
- viable cell density ([2]; 5.4 mM dipeptide (#1), time 12.02): 4.91 10^6 cells/ml
- viable cell density ([2]; 5.4 mM dipeptide (#1), time 12.75): 6.415 10^6 cells/ml
- viable cell density ([2]; 5.4 mM dipeptide (#1), time 13.89): 8.285 10^6 cells/ml
- viable cell density ([2]; 5.4 mM dipeptide (#1), time 14.74): 11.695 10^6 cells/ml
- viable cell density ([2]; 5.4 mM dipeptide (#1), time 15.79): 10.075 10^6 cells/ml
- viable cell density ([2]; 5.4 mM dipeptide (#1), time 16.89): 7.995 10^6 cells/ml
- viable cell density ([2]; 5.4 mM dipeptide (#1), time 18.06): 6.6 10^6 cells/ml
- maximum viable cell density (third passage) ([2]; cultivation #1, all Asn provided in the form of the dipeptide (5.4 mM), compared among cultivations #1-6): greatest
